This passage reports Ki results from article PMC2951761 (Biochemistry, 2010).

The target of assay [1] is EF CC activity (Bacillus anthracis, UniProt P40136). The class given is biochemical. Particulars: read-out: Ki EF CC activity.
Assay [2] addresses T1, EF AC activity (Bacillus anthracis, UniProt P40136). Format: biochemical. Particulars: read-out: Ki EF AC activity.
For assay [3], the target named is T1, EF AC activity. Particulars: read-out: Ki EF AC activity; cited from earlier work.
The target of assay [4] is CyaA AC activity (Bordetella pertussis, UniProt P0DKX7). As to conditions: read-out: Ki CyaA AC activity; cited from earlier work.
Assay [5] has as its target CyaA CC activity (Bordetella pertussis, UniProt P0DKX7). Format: biochemical. As to conditions: read-out: Ki CyaA CC activity.

Where two headings read alike, the source gives them in different places.

Sequence of CyaA AC activity (P0DKX7 whole entry, looked up): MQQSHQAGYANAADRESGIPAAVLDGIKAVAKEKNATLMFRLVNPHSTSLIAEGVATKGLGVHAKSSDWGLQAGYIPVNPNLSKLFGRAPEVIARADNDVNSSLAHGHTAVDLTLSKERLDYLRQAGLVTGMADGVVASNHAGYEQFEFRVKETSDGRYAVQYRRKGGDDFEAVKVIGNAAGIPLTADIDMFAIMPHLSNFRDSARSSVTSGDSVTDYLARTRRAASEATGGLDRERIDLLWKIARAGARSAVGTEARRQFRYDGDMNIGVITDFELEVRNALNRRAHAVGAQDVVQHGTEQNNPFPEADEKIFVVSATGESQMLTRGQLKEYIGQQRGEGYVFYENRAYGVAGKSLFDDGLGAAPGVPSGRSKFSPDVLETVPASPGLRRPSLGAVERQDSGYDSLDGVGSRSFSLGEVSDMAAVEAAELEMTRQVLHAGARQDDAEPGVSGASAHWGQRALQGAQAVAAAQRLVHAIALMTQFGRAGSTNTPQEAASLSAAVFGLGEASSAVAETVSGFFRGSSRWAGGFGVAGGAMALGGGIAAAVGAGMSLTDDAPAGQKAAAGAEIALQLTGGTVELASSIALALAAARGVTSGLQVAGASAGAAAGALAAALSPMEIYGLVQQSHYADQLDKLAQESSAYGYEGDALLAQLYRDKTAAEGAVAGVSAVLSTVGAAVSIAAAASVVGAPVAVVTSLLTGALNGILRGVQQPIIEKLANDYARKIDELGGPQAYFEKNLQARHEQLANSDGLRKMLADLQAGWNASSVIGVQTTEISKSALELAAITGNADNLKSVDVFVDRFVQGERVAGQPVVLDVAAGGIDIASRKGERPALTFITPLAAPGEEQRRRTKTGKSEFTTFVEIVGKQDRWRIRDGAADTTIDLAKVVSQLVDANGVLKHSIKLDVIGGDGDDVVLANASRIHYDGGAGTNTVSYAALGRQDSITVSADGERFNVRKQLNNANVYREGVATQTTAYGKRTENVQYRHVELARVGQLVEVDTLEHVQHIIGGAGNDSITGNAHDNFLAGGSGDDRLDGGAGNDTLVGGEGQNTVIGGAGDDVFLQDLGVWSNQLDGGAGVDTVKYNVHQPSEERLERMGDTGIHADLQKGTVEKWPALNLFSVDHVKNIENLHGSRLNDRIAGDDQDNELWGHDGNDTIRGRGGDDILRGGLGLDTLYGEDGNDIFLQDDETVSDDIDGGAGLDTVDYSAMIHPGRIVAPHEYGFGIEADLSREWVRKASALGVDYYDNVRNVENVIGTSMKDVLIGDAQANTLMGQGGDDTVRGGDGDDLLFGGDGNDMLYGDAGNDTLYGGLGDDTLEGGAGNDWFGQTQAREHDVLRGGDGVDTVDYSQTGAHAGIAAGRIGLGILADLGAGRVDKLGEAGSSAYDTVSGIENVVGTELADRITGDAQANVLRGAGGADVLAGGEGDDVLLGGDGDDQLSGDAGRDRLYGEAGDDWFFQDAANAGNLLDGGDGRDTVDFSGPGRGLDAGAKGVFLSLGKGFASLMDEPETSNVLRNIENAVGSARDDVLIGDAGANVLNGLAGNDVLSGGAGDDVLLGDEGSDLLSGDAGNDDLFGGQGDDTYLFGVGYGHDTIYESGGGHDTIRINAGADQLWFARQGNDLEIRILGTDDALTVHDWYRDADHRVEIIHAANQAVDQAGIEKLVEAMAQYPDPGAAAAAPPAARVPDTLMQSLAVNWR
Sequence of CyaA CC activity (P0DKX7 whole entry, looked up): as above
Sequence of EF CC activity (P40136 whole entry, looked up): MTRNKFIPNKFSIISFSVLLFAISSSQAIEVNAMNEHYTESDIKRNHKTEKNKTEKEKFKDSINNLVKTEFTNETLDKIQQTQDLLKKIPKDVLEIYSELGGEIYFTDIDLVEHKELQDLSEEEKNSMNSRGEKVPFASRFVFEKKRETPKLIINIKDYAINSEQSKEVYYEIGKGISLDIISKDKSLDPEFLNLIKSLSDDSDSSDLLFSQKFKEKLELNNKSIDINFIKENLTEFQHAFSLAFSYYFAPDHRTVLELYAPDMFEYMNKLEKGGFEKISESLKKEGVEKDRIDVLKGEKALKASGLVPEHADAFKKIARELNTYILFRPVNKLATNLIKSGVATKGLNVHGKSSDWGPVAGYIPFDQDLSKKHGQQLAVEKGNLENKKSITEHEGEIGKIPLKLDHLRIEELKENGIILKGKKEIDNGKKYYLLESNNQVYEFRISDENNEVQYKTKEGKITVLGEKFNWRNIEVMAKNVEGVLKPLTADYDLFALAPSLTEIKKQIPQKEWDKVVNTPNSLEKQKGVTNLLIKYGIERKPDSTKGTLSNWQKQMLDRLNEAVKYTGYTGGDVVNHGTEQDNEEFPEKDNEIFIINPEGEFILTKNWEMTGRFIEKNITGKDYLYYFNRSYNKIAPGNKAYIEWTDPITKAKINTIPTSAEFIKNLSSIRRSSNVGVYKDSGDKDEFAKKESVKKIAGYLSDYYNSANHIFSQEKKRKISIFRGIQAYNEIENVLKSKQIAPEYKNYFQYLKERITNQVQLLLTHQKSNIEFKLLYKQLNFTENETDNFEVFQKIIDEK
T1 sequence (P40136 whole entry, looked up): as above

In the case of `Nc1ncnc2c1ncn2CCOCP(=O)(O)OP(=O)(O)OP(=O)(O)O` [PMEApp, [9-[2-(Phosphonomethoxy)ethyl]adenine diphosphate]], the Ki in assay [1] is 0.0045 ± 0.0004 µM; in assay [2], 0.002 ± 0.0005 µM.

For the compound MANT-GTP, the inhibition constant (Ki) in assay [1] is 2.8 ± 0.4 µM; in assay [3], 2.5 ± 0.1 µM; in assay [4], 5.9 ± 1 µM; in assay [5], 6.1 ± 2 µM.

For the compound MANT-ATP, the inhibition constant Ki in assay [4] is 4.3 ± 0.4 µM; in assay [5], 4.4 ± 0.1 µM.
